Results from patent US10407398B2, “Inhibitors of Pseudomonas aeruginosa LecB” (priority 2015, dated 2019).

Legend:
LecBPA14 [1] = molecular target: T1, LecBPA14 (Pseudomonas aeruginosa, UniProt A0A0H2ZE85); assay: biochemical; type: binding, Pseudomonas aeruginosa UCBPP-PA14
Experimental: The measured intensities were reduced by buffer values and fluorescence polarization was calculated. The data were analyzed using BMG Labtech MARS software and/or with Graphpad Prism and fitted according to the four parameter variable slope model. […] A minimum of three independent measurements of triplicates each was performed for every ligand.

LecBPAO1 [2] = molecular target: T2, LecBPAO1 (Pseudomonas aeruginosa, UniProt Q9HYN5); assay: biochemical; type: binding
T2 construct: made in house

LecB = LecB (Pseudomonas aeruginosa, UniProt Q9HYN5); details: background art; cited from earlier work
LecBPA14 [3] = molecular target: T1, LecBPA14; assay: biochemical; type: binding, Pseudomonas aeruginosa UCBPP-PA14; details: for N: ITC binding stoichiometry, one site binding model; for N / ΔG / ΔH / −TΔS: LecBPA14; for ΔG / ΔH / −TΔS: ITC, 25° C.
Experimental: (§1) The temperature of the sample cell was 25° C. The titration was performed with a solution of ligands in the same buffer.

LecBPAO1 [4] = molecular target: T2, LecBPAO1; assay: Microcalorimetric assay (ITC) for direct binding; details: for N: ITC binding stoichiometry, one site binding model; for N / ΔG / ΔH / −TΔS: LecBPAO1; for ΔG / ΔH / −TΔS: ITC, 25° C.
Experimental: as §1

T1 sequence (A0A0H2ZE85 entry or part of it): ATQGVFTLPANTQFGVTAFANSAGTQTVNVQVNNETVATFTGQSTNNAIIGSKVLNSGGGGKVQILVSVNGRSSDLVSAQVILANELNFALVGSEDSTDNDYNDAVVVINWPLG
T2 sequence (Q9HYN5 entry or part of it): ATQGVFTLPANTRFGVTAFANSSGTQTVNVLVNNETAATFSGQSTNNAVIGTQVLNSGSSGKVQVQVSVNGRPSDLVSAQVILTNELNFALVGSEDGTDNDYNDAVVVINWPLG
Sequence of LecB (Q9HYN5 entry or part of it): as above

CC1OCC(O)C(O)[C@@]1(O)CCNS(C)(=O)=O (stereo partly drawn) [1-deoxy-4(R)—C-(ethylmethylsulfonamide) L-fucose]
IC50 (LecBPA14 [1]): 150 ± 20 nM | IC50 (LecBPAO1 [2]): 440 ± 70 nM

CC1OCC(O)C(O)[C@@]1(O)Cc1ccccc1 (stereo partly drawn) [1-deoxy-4(S)—C-(benzyl) L-fucose]
IC50 (LecBPA14 [1]): 620 ± 80 nM | IC50 (LecBPAO1 [2]): 2610 ± 20 nM

CC1OCC(O)C(O)[C@@]1(O)CC#N (stereo partly drawn) [1-deoxy-4(S)—C-(cyanomethyl) L-fucose]
IC50 (LecBPA14 [1]): 580 ± 110 nM | IC50 (LecBPAO1 [2]): 1690 ± 150 nM

CC1OCC(O)C(O)[C@@]1(O)C1CCCCC1 (stereo partly drawn) [1-deoxy-4(S)—C-(cyclohexyl) L-fucose]
IC50 (LecBPA14 [1]): 750 ± 130 nM | IC50 (LecBPAO1 [2]): 2590 ± 90 nM

CCCCCC[C@@]1(O)C(C)OCC(O)C1O (stereo partly drawn) [1-deoxy-4(S)—C-(hexyl) L-fucose]
IC50 (LecBPA14 [1]): 330 ± 160 nM | IC50 (LecBPAO1 [2]): 610 ± 90 nM

CC(C)CC[C@@]1(O)C(C)OCC(O)C1O (stereo partly drawn) [1-deoxy-4(S)—C-(isopentyl) L-fucose]
IC50 (LecBPA14 [1]): 450 ± 120 nM | IC50 (LecBPAO1 [2]): 780 ± 90 nM

CC1OCC(O)C(O)[C@]1(C)O (stereo partly drawn) [1-deoxy-4(S)—C-(methyl) L-fucose]
IC50 (LecBPA14 [1]): 170 ± 30 nM | IC50 (LecBPAO1 [2]): 460 ± 70 nM

CC1OCC(O)C(O)[C@@]1(O)c1ccccc1 (stereo partly drawn) [1-deoxy-4(S)—C-(phenyl) L-fucose]
IC50 (LecBPA14 [1]): 1480 ± 80 nM | IC50 (LecBPAO1 [2]): 4970 ± 360 nM

CCC[C@@]1(O)C(C)OCC(O)C1O (stereo partly drawn) [1-deoxy-4(S)—C-(propyl) L-fucose]
IC50 (LecBPA14 [1]): 230 ± 50 nM | IC50 (LecBPAO1 [2]): 660 ± 90 nM

CC(=O)N[C@H]1C(O)O[C@H](CO)[C@@H](O[C@@H]2O[C@@H](C)[C@@H](O)[C@@H](O)[C@@H]2O)[C@@H]1O[C@@H]1O[C@H](CO)[C@H](O)[C@H](O)[C@H]1O (stereo partly drawn) [Lewis^a trisaccharide, α-Fuc1-4((βGal1-3)-GlcNAc]
Kd (LecB): 210 nM

CC1OCC(O)C(O)[C@@H]1O (stereo partly drawn) [drawing 74, 1-deoxy-L-fucose, reference compound]
IC50 (LecBPA14 [1]): 600 ± 140 nM | IC50 (LecBPAO1 [2]): 1550 ± 500 nM

CC[C@@]1(O)C(C)OCC(O)C1O (stereo partly drawn) [drawing 82, 1-deoxy-4(S)—C-(ethyl) L-fucose]
IC50 (LecBPA14 [1]): 140 ± 30 nM | IC50 (LecBPAO1 [2]): 390 ± 60 nM

CCCC[C@@]1(O)C(C)OCC(O)C1O (stereo partly drawn) [drawing 84, 1-deoxy-4(S)—C-(butyl) L-fucose]
IC50 (LecBPA14 [1]): 230 ± 30 nM | IC50 (LecBPAO1 [2]): 650 ± 10 nM

Cc1cc(C)c(S(=O)(=O)NC[C@H]2OC(C)[C@@H](O)C(O)C2O)c(C)c1 (stereo partly shown) [drawing 93]
IC50 (LecBPA14 [1]): 420 ± 200 nM | IC50 (LecBPAO1 [2]): 980 ± 60 nM

CC1O[C@H](CNC(=O)/C=C/c2ccccc2)C(O)C(O)[C@@H]1O (stereo partly shown) [drawing 111]
IC50 (LecBPA14 [1]): 2490 ± 200 nM | IC50 (LecBPAO1 [2]): 4210 ± 940 nM

CC1OCC(O)C(O)[C@@H]1O (stereo partly drawn) [drawing 115, 1-deoxy-L-fucose, reference compound]
Kd (LecBPA14 [3]): 453 ± 120 nM | N (LecBPA14 [3]): 0.94 ± 0.04 | ΔG (LecBPA14 [3]): -8.68 ± 0.153 kcal/mol | ΔH (LecBPA14 [3]): -7.58 ± 0.261 kcal/mol | −TΔS (LecBPA14 [3]): -1.1 ± 0.399 kcal/mol | Kd (LecBPAO1 [4]): 773 ± 110 nM | N (LecBPAO1 [4]): 1.07 ± 0.03 | ΔG (LecBPAO1 [4]): -8.34 ± 0.0837 kcal/mol | ΔH (LecBPAO1 [4]): -8.68 ± 0.217 kcal/mol | −TΔS (LecBPAO1 [4]): 0.327 ± 0.272 kcal/mol

CC[C@@]1(O)C(C)OCC(O)C1O (stereo partly shown) [drawing 116]
Kd (LecBPA14 [3]): 130 ± 49 nM | N (LecBPA14 [3]): 0.96 ± 0.04 | ΔG (LecBPA14 [3]): -9.42 ± 0.208 kcal/mol | ΔH (LecBPA14 [3]): -10 ± 0.277 kcal/mol | −TΔS (LecBPA14 [3]): 0.619 ± 0.263 kcal/mol | Kd (LecBPAO1 [4]): 201 ± 42 nM | N (LecBPAO1 [4]): 1.03 ± 0.13 | ΔG (LecBPAO1 [4]): -9.13 ± 0.129 kcal/mol | ΔH (LecBPAO1 [4]): -12.4 ± 1.09 kcal/mol | −TΔS (LecBPAO1 [4]): 3.2 ± 1.12 kcal/mol

CCCC[C@@]1(O)C(C)OCC(O)C1O (stereo partly shown) [drawing 117]
Kd (LecBPA14 [3]): 246 ± 47 nM | N (LecBPA14 [3]): 1.03 ± 0.08 | ΔG (LecBPA14 [3]): -9.01 ± 0.115 kcal/mol | ΔH (LecBPA14 [3]): -9.42 ± 0.0096 kcal/mol | −TΔS (LecBPA14 [3]): 0.394 ± 0.117 kcal/mol | Kd (LecBPAO1 [4]): 401 ± 84 nM | N (LecBPAO1 [4]): 1.02 ± 0.09 | ΔG (LecBPAO1 [4]): -8.75 ± 0.0956 kcal/mol | ΔH (LecBPAO1 [4]): -11.3 ± 0.12 kcal/mol | −TΔS (LecBPAO1 [4]): 2.51 ± 0.186 kcal/mol

CC1O[C@H](CNC(=O)/C=C/c2ccccc2)C(O)C(O)[C@@H]1O (stereo partly shown) [drawing 118]
Kd (LecBPA14 [3]): 2590 ± 390 nM | N (LecBPA14 [3]): 1.07 ± 0.05 | ΔG (LecBPA14 [3]): -7.29 ± 0.523 kcal/mol | ΔH (LecBPA14 [3]): -7.5 ± 0.344 kcal/mol | −TΔS (LecBPA14 [3]): 0.21 ± 0.239 kcal/mol | Kd (LecBPAO1 [4]): 3090 ± 840 nM | N (LecBPAO1 [4]): 0.93 ± 0.01 | ΔG (LecBPAO1 [4]): -7.53 ± 0.165 kcal/mol | ΔH (LecBPAO1 [4]): -7.86 ± 0.394 kcal/mol | −TΔS (LecBPAO1 [4]): 0.327 ± 0.32 kcal/mol

Cc1cc(C)c(S(=O)(=O)NC[C@H]2OC(C)[C@@H](O)C(O)C2O)c(C)c1 (stereo partly shown) [drawing 119]
Kd (LecBPA14 [3]): 310 ± 50 nM | N (LecBPA14 [3]): 0.98 ± 0.05 | ΔG (LecBPA14 [3]): -8.87 ± 0.105 kcal/mol | ΔH (LecBPA14 [3]): -9.03 ± 0.88 kcal/mol | −TΔS (LecBPA14 [3]): 0.155 ± 0.774 kcal/mol | Kd (LecBPAO1 [4]): 1270 ± 120 nM | N (LecBPAO1 [4]): 0.99 ± 0.04 | ΔG (LecBPAO1 [4]): -8.03 ± 0.0574 kcal/mol | ΔH (LecBPAO1 [4]): -8.41 ± 0.0096 kcal/mol | −TΔS (LecBPAO1 [4]): 0.363 ± 0.0502 kcal/mol
